The source of these data is the supplement of paper PMC5412046.

The structures appear in SMILES notation.

Test [1] deals with SB.mhdgc-1. Put plainly: viability at highest tested concentration (MAXR) relative to DMSO; higher = less cytotoxic. The conditions noted are these: SB.mhdgc-1 (hereditary c.1380delA CDH1 gastric cancer). The gist of the method:
(§1)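 A pintool delivered 23 nL of compound in DMSO to 1536-well plates holding 500 hereditary or sporadic patient-derived gastric cancer cells in 5 μL medium per well, at 11 concentrations in threefold steps. Following 48 h of exposure, cells were treated with CellTiter-Glo for 30 min at room temperature, and plates were read for luminescence on a ViewLux. The reported measure is viability normalised to DMSO, either at the top concentration or as trapezoidal area under the curve.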

In test [2] the test system is SB.msgc-1. The description is as above. The conditions noted are these: SB.msgc-1 (sporadic gastric cancer). The essentials: as §1
The subject of test [3] is SB.mhdgc-1. In words: area under the dose-response curve of % viability (trapezoidal, 11 doses) (% viability x log10 concentration); higher = less cytotoxic. To be noted: SB.mhdgc-1 (hereditary c.1380delA CDH1 gastric cancer). The essentials:
as §1

Test [4] deals with SB.msgc-1. Described as above. To be noted: SB.msgc-1 (sporadic gastric cancer). The gist of the method:
as §1

With `CC(C)Cn1cnc2c(N)nc3ccccc3c21` [Imiquimod] (top concentration 46.0829 µM), the viability in the test on SB.mhdgc-1 [1] was 42.7%; in the test with SB.msgc-1 [2] it was 44.5%. The “area under the dose-response curve” value turned out to be 439 in the test on SB.mhdgc-1 [3] and 511 with SB.msgc-1 [4].

Take `CC1Cc2ccccc2N1NC(=O)c1ccc(Cl)c([S+](N)(=O)[O-])c1` (stereo not drawn) [Indapamide] (top concentration 46.0829 µM): the results for the viability in the test with SB.mhdgc-1 [1] and in the test with SB.msgc-1 [2] were 112% and 96.4%, respectively. Moreover, the “area under the dose-response curve” value with SB.mhdgc-1 [3] is 597; with SB.msgc-1 [4], 542.

With `O=C(Nc1ccncc1)C(=O)c1cn(Cc2ccc(Cl)cc2)c2ccccc12` [Indibulin] (top concentration 46.0829 µM), the viability amounted to 70.3% in the test with SB.mhdgc-1 [1] and 34.1% with SB.msgc-1 [2]. The entries for the “area under the dose-response curve” value with SB.mhdgc-1 [3] and with SB.msgc-1 [4] were 468 and 398, respectively.

For `CC(C)(C)NC(=O)[C@@H]1CN(Cc2cccnc2)CCN1C[C@@H](O)C[C@@H](Cc1ccccc1)C(=O)N[C@H]1c2ccccc2C[C@H]1O.O=S(=O)(O)O` [Indinavir] (top concentration 46.0829 µM), the viability was determined as 37.1% in the test on SB.mhdgc-1 [1] and 52.7% in the test with SB.msgc-1 [2]. Besides, the “area under the dose-response curve” value in the test with SB.mhdgc-1 [3] came to 347; in the test with SB.msgc-1 [4] it was 473.

As to `CC(=O)N(C)c1cccc(-c2ccnc3c(C(=O)c4cccs4)cnn23)c1` [Indiplon] (top concentration 46.0829 µM), the figures for the viability in the test with SB.mhdgc-1 [1] and in the test with SB.msgc-1 [2] were 101% and 64.2%, respectively. The “area under the dose-response curve” value in the test on SB.mhdgc-1 [3] stood at 571; in the test with SB.msgc-1 [4], 489.

Take `O=C1Nc2ccccc2/C1=C1\Nc2ccccc2C1=O` [Indirubin] (top concentration 46.0829 µM): the viability with SB.mhdgc-1 [1] was 48%; in the test on SB.msgc-1 [2], 57.6%. The “area under the dose-response curve” value worked out at 345 with SB.mhdgc-1 [3] and 473 with SB.msgc-1 [4].

Consider `COc1ccc2c(c1)c(CC(=O)O)c(C)n2C(=O)c1ccc(Cl)cc1` [Indomethacin] (top concentration 46.0829 µM), for which the viability in the test with SB.mhdgc-1 [1] is 45%; in the test with SB.msgc-1 [2], 41.7%. The “area under the dose-response curve” value was 412 in the test on SB.mhdgc-1 [3] and 386 in the test with SB.msgc-1 [4].

For `Cn1cc(C[C@@H](N)C(=O)O)c2ccccc21` [Indoximod] (top concentration 23.0415 µM), the values for the viability with SB.mhdgc-1 [1] and in the test on SB.msgc-1 [2] were 125% and 84%, respectively. Also, the “area under the dose-response curve” value stood at 629 with SB.mhdgc-1 [3] and 471 in the test on SB.msgc-1 [4].

Regarding `C/C=C(/C)C(=O)O[C@H]1C(C)=C[C@]23C(=O)[C@@H](C=C(CO)[C@@H](O)[C@]12O)[C@H]1[C@@H](C[C@H]3C)C1(C)C` [Ingenol mebutate] (top concentration 46.0829 µM), the viability with SB.mhdgc-1 [1] was 85%; in the test with SB.msgc-1 [2], 52.2%. The “area under the dose-response curve” value with SB.mhdgc-1 [3] was 433; in the test on SB.msgc-1 [4], 372.

As to `NC(=O)c1ccc(I)c([N+](=O)[O-])c1` [Iniparib] (top concentration 46.0829 µM), the values for the viability in the test with SB.mhdgc-1 [1] and in the test with SB.msgc-1 [2] were 36.6% and 81.8%, respectively. Moreover, the “area under the dose-response curve” value amounted to 583 in the test on SB.mhdgc-1 [3] and 474 in the test on SB.msgc-1 [4].

In the case of `CC(C)[N+]1(C)C2CCC1CC(OC(=O)C(CO)c1ccccc1)C2.O.[Br-]` (stereo not drawn) [Ipratropium bromide] (top concentration 46.0829 µM), the figures for the viability with SB.mhdgc-1 [1] and with SB.msgc-1 [2] were 89.3% and 86.3%, respectively. For the same molecule, the “area under the dose-response curve” value turned out to be 466 in the test with SB.mhdgc-1 [3] and 504 with SB.msgc-1 [4].

Regarding `CC(C)OC1=CC=C2C(=C1)O\C=C(/C2=O)C3=CC=CC=C3` [Ipriflavone] (top concentration 46.0829 µM), the viability in the test with SB.mhdgc-1 [1] was 60.8%; with SB.msgc-1 [2], 54%. The “area under the dose-response curve” value in the test with SB.mhdgc-1 [3] and with SB.msgc-1 [4] was 487 throughout.

Regarding `Cc1csc(NC(=O)c2sc3nc4c(c(C(F)(F)F)c3c2N)CCC4)n1` [Irestatin 9389] (top concentration 46.0829 µM), the viability in the test on SB.mhdgc-1 [1] was determined as 42.8%; with SB.msgc-1 [2], 42.3%. For the same molecule, the “area under the dose-response curve” value with SB.mhdgc-1 [3] was 481; in the test with SB.msgc-1 [4], 490.

With `CCC1=C2C=C(OC(=O)N3CCC(CC3)N4CCCCC4)C=CC2=NC\5=C1CN6C(=O)\C7=C(/C=C56)[C@@](O)(CC)C(=O)OC7` [Irinotecan] (top concentration 46.0829 µM), the viability in the test with SB.mhdgc-1 [1] came out at 26.6%; in the test with SB.msgc-1 [2], 42.7%. In addition, the results for the “area under the dose-response curve” value in the test on SB.mhdgc-1 [3] and in the test with SB.msgc-1 [4] were 321 and 394, respectively.

Turning to `Nc1nc(N)nc(-c2cc(Cl)ccc2Cl)n1.O=C(O)/C=C\C(=O)O` [Irsogladine maleate] (top concentration 46.0829 µM), the viability in the test with SB.mhdgc-1 [1] was 76.8%; with SB.msgc-1 [2] it was 102%. The “area under the dose-response curve” value in the test on SB.mhdgc-1 [3] is 521; with SB.msgc-1 [4], 530.

On to `CN[C@@H]1[C@@H](O)[C@@H](O[C@@H]2[C@@H](O)[C@H](O[C@H]3O[C@H](CN)[C@@H](O)[C@H](O)[C@H]3O)[C@@H](N)C[C@H]2NC(=O)[C@@H](O)CN)OC[C@]1(C)O` [Isepamicin] (top concentration 46.0829 µM), for which the viability stood at 101% in the test on SB.mhdgc-1 [1] and 99.2% with SB.msgc-1 [2]. The “area under the dose-response curve” value in the test on SB.mhdgc-1 [3] came out at 535; in the test with SB.msgc-1 [4], 530.

As to `Clc1ccc(C(Cn2ccnc2)OCc2c(Cl)cccc2Cl)c(Cl)c1` (stereo not drawn) [Isoconazole nitrate] (top concentration 46.0829 µM), the viability came out at 50.2% in the test with SB.mhdgc-1 [1] and 54.8% in the test with SB.msgc-1 [2]. In addition, the “area under the dose-response curve” value with SB.mhdgc-1 [3] is 505; in the test with SB.msgc-1 [4], 509.
